Format in all cases: cell-based, Staphylococcus aureus
One assay has as its system S. aureus USA300 LAC. Put plainly: microbe, parasite or virus in culture. The procedure, abridged: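 Broth microdilution with twofold peptide dilutions, using exponential-phase bacteria at about 10^5 CFU/mL in MHB, incubated overnight at 37 °C and read at OD600. MIC, reported as a range, is the peptide concentration with no growth. Some tests used diluted MHB/TSB/LB, adjusted pH, or added NaCl or human serum.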

Assay [1] concerns MRSA USA300. Put plainly: Killing kinetics. To be noted: 2×MIC. As for the experimental part: MRSA USA300 was grown to the exponential phase (OD600˜0.3) in MHB. The culture was diluted to OD600 0.001 (˜10^5 CFU/mL). One milliliter of bacterial suspension was then mixed with LL-37mini or daptomycin at 2×MIC and incubated at 37° C. After 15, 30, 60, 90, and 120 minutes of incubation, 50 μL was taken and serially diluted with 1×PBS. Then, 50 μL of the diluted suspension was plated on mannitol salt agar plates (NEOGEN, MI). The plates were incubated overnight at 37° C. for bacterial CFU determination the next day.
For bacterial killing kinetics study, MRSA USA300 and P. aeruginosa E411-17 was grown to the exponential phase (OD600˜0.3) in MHB. The culture was diluted to OD600 0.001 (˜10^5 CFU/mL). One milliliter of bacterial suspension was then mixed with the peptide, colistin or daptomycin at 4×MIC and incubated at 37° C. After 15, 30, 60, 90, and 120 minutes incubation, 50 μL was taken and serially diluted with 1×PBS. Then, 50 μL of the diluted suspension was plated on Mannitol Salt Agar (MRSA USA300) or Cetrimide Agar (P. aeruginosa E411-17) plates (NEOGEN, MI). The plates were incubated overnight at 37° C. for bacterial CFU count the next day.

Assay [2] concerns MRSA USA300. Put plainly: Membrane permeabilization (propidium iodide). The protocol: The peptide ladder was prepared as described for the antibacterial assay with 10 μL of solution in a black COSTAR® 96-well plate. PI (MP Biomedicals, Solon, OH) was prepared in the dark and dissolved in dimethylsulfoxide (Thermo Fisher Scientific, NY) to 20 mM. This PI stock solution was further diluted to 1 mM with water, and 2 μL of 1 mM PI was added to each well. Exponential-phase MRSA USA300 was diluted to OD600 0.11 with TSB, and 88 μL was added to each well. The plate was incubated at 37° C. with continuous shaking in a FLUOstar® Omega (BMG LABTECH, NC) microplate reader. The sample was read every 5 minutes for 24 cycles with excitation and emission wavelengths of 584 and 620 nm, respectively.
Bacterial membrane permeation was conducted (Yeaman, et al. (1998) J. Clin. Invest., 101(1):178-87). In brief, the peptide ladder was prepared as described for the antibacterial assay with 10 μL in a black COSTAR 96-well plate. Propidium iodide (PI) (MP Biomedicals, Solon, OH) was prepared in the dark and dissolved in DMSO (Thermo Fisher Scientific, NY) to 20 mM. This PI stock solution was further diluted to 1 mM with water and 2 μL of 1 mM PI was added to each well. Exponential phase MRSA USA300 or P. aeruginosa E411-17 was diluted to OD600 0.11 with tryptic soy broth (TSB) and 88 μL was added to each well. The plate was incubated at 37° C. with continuous shaking in a FLUOstar® Omega (BMG LABTECH, NC) microplate reader. The sample was read every 5 minutes for 24 cycles with excitation and emission wavelengths at 584 nm and 620 nm, respectively.

Converted amounts (≈) assume the structure as drawn. Where two headings read alike, the source gives them in different places. Where no end group is shown, it is not given here.

Data on three compounds can be found in patent publication US20250101062A1, “ANTIMICROBIAL PEPTIDES” (Board of Regents of the University of Nebraska, priority 2023, published 2025).

Take `CCCCCCCCCC(=O)N[C@@H](Cc1c[nH]c2ccccc12)C(=O)N[C@H](CC(N)=O)C(=O)N[C@@H](CC(=O)O)C(=O)N[C@@H]1C(=O)NCC(=O)N[C@@H](CCCN)C(=O)N[C@@H](CC(=O)O)C(=O)N[C@H](C)C(=O)N[C@@H](CC(=O)O)C(=O)NCC(=O)N[C@H](CO)C(=O)N[C@@H]([C@H](C)CC(=O)O)C(=O)N[C@@H](CC(=O)c2ccccc2N)C(=O)O[C@@H]1C` [Daptomycin]: the MIC with S. aureus USA300 LAC (Staphylococcus aureus, MRSA / USA300, MRSA in MHB, 10% serum, read-out: Antimicrobial activity (MIC)) is 1 µM (≈ 1.62 µg/mL); with S. aureus USA300 LAC (Staphylococcus aureus, MRSA / USA300, MRSA in MHB, 20% serum, read-out: Antimicrobial activity (MIC)) it was 1 µM (≈ 1.62 µg/mL); in the assay with S. aureus USA300 LAC (Staphylococcus aureus, MRSA / USA300, MRSA in MHB, NaCl (150 mM), read-out: Antimicrobial activity (MIC)) it was 1 µM (≈ 1.62 µg/mL); with S. aureus USA300 LAC (Staphylococcus aureus, MRSA / USA300, pH 6.3, MRSA in MHB, pH 6.3, read-out: Antimicrobial activity (MIC)), 1 µM (≈ 1.62 µg/mL); in the assay with S. aureus USA300 LAC (Staphylococcus aureus, MRSA / USA300, pH 7.2, MRSA in MHB, pH 7.2, read-out: Antimicrobial activity (MIC)) it was 1 µM (≈ 1.62 µg/mL); in the assay on S. aureus USA300 LAC (Staphylococcus aureus, USA300, Human serum 5%, read-out: Antimicrobial activity (MIC)), 0.5 to 1 µM (≈ 0.81 to 1.62 µg/mL). The MIC was 0.5 to 1 µM (≈ 0.81 to 1.62 µg/mL) in the assay on S. aureus USA300 LAC (Staphylococcus aureus, USA300, Human serum 10%, read-out: Antimicrobial activity (MIC)); 0.5 to 1 µM (≈ 0.81 to 1.62 µg/mL) in the assay on S. aureus USA300 LAC (Staphylococcus aureus, USA300, MHB, Table 8, read-out: Antimicrobial activity (MIC) S. aureus USA300); 0.5 µM (≈ 0.81 µg/mL) in the assay with S. aureus USA300 LAC (Staphylococcus aureus, USA300, NaCl (150 mM), read-out: Antimicrobial activity (MIC)); 0.5 to 1 µM (≈ 0.81 to 1.62 µg/mL) in the assay on S. aureus USA300 LAC (Staphylococcus aureus, USA300, pH 6.21, pH 6.21, read-out: Antimicrobial activity (MIC)); 0.5 µM (≈ 0.81 µg/mL) in the assay on S. aureus USA300 LAC (Staphylococcus aureus, USA300, pH 7.22, pH 7.22, read-out: Antimicrobial activity (MIC)); 0.5 µM (≈ 0.81 µg/mL) in the assay with S. aureus USA300 LAC (Staphylococcus aureus, USA300, pH 8.13, pH 8.13, read-out: Antimicrobial activity (MIC)). In addition, the time to kill with MRSA USA300 [1] was 2 h. Moreover, the membrane permeabilization result in the assay on MRSA USA300 [2] (Example 1, 1×MIC) is on record as “membrane permeabilization after a delay”.
`CC[C@H](C)[C@H](NC(=O)[C@H](CCCCN)NC(=O)[C@H](CCC(=O)O)NC(=O)[C@H](CCCCN)NC(=O)[C@H](CO)NC(=O)[C@H](CCCCN)NC(=O)[C@H](CCCNC(=N)N)NC(=O)[C@H](Cc1ccccc1)NC(=O)[C@H](Cc1ccccc1)NC(=O)[C@H](CC(=O)O)NC(=O)CNC(=O)[C@H](CC(C)C)NC(=O)[C@@H](N)CC(C)C)C(=O)NCC(=O)N[C@@H](CCCCN)C(=O)N[C@@H](CCC(=O)O)C(=O)N[C@@H](Cc1ccccc1)C(=O)N[C@@H](CCCCN)C(=O)N[C@@H](CCCNC(=N)N)C(=O)N[C@H](C(=O)N[C@H](C(=O)N[C@@H](CCC(N)=O)C(=O)N[C@@H](CCCNC(=N)N)C(=O)N[C@H](C(=O)N[C@@H](CCCCN)C(=O)N[C@@H](CC(=O)O)C(=O)N[C@@H](Cc1ccccc1)C(=O)N[C@@H](CC(C)C)C(=O)N[C@@H](CCCNC(=N)N)C(=O)N[C@@H](CC(N)=O)C(=O)N[C@@H](CC(C)C)C(=O)N[C@H](C(=O)N1CCC[C@H]1C(=O)N[C@@H](CCCNC(=N)N)C(=O)N[C@H](C(=O)N[C@@H](CCC(=O)O)C(=O)N[C@@H](CO)C(=O)O)[C@@H](C)O)C(C)C)[C@@H](C)CC)C(C)C)[C@@H](C)CC` [LL-37]: the MIC is recorded as no more than 4 µM with S. aureus USA300 LAC (DMEM, read-out: Antimicrobial activity (MIC)); greater than 32 µM in the assay with S. aureus USA300 LAC (Human serum 5%, read-out: Antimicrobial activity (MIC)); greater than 32 µM in the assay with S. aureus USA300 LAC (Human serum 10%, read-out: Antimicrobial activity (MIC)); greater than 32 µM with S. aureus USA300 LAC (MHB, Table 8, read-out: Antimicrobial activity (MIC) S. aureus USA300); greater than 32 µM with S. aureus USA300 LAC (NaCl (150 mM), read-out: Antimicrobial activity (MIC)); no more than 4 µM in the assay with S. aureus USA300 LAC (RPMI 1640, read-out: Antimicrobial activity (MIC)). In addition, the MIC with S. aureus USA300 LAC (pH 6.21, read-out: Antimicrobial activity (MIC)) was greater than 32 µM; in the assay with S. aureus USA300 LAC (pH 7.22, read-out: Antimicrobial activity (MIC)), greater than 32 µM. The “Antimicrobial activity (MIC)” value in the assay on S. aureus USA300 LAC (LB 12.5%) is greater than 32 µM; in the assay with S. aureus USA300 LAC (LB 25%) it was greater than 32 µM; in the assay on S. aureus USA300 LAC (LB 50%), greater than 32 µM; with S. aureus USA300 LAC (LB 100%) it was greater than 32 µM; in the assay with S. aureus USA300 LAC (MHB 50%), 32 µM; in the assay on S. aureus USA300 LAC (MHB 100%) it was “did not display any activity”. In addition, the “Antimicrobial activity (MIC)” value with S. aureus USA300 LAC (TSB 12.5%), in the assay with S. aureus USA300 LAC (TSB 25%), in the assay on S. aureus USA300 LAC (TSB 50%) and in the assay with S. aureus USA300 LAC (TSB 100%) was greater than 32 µM in each case. Further, in the assay with MRSA USA300 [2] (Example 2, TSB, 1-32 μM), the membrane permeabilization result is “failed to do so”.
With RRWWRWWR-NH2 [W543], the “change of MIC / activity” value with S. aureus USA300 LAC (MRSA in MHB, 10% human serum) is listed as “eightfold”. The “effect on MIC” value in the assay on S. aureus USA300 LAC (MRSA in MHB, addition of 150 mM NaCl) is recorded as “did not alter the MIC”. Moreover, the “increase of MIC” value with S. aureus USA300 LAC (MRSA in MHB, decrease of pH from 7.2 to 6.3) is “twofold”. In addition, in the assay on S. aureus USA300 LAC (USA300), the “Activity (MIC) S. aureus” value lay in the range of 4 to 8 µM and the “Antimicrobial activity (MIC)” value came out at 64 µM. For the same compound, in the assay with S. aureus USA300 LAC (USA300, pH 6.3), the “Antimicrobial activity (MIC)” value was found to be 16 µM. In the assay with S. aureus USA300 LAC (without protease), the “concentration with no growth” value was determined as 8 µM. The “time at which CFU was not detected (killing)” value with MRSA USA300 [1] was 120 min. Moreover, the membrane permeabilization entry with MRSA USA300 [2] (Example 1, 1×MIC) is on record as “clear fluorescence increase”.
